Experimental findings from patent US9051591B2, “Bacterium of enterobacteriaceae family producing L-aspartic acid or L-aspartic acid-derived metabolites and a method for producing L-aspartic acid or L-aspartic acid-derived metabolites” (AJINOMOTO CO., INC., priority 2010, dated 2015) are described below.

The Km is the substrate concentration at which the rate is half of its maximum. What is called Vmax is the rate approached at saturating substrate. The term kcat denotes the maximal rate divided by the concentration of active sites. One may read the kcat/Km as the second-order rate constant that governs catalysis at low substrate concentration.

Data set [1] addresses T1, ADH (Polaromonas sp.) (Polaromonas sp., UniProt Q126F5).
T1 sequence (Q126F5 1-267): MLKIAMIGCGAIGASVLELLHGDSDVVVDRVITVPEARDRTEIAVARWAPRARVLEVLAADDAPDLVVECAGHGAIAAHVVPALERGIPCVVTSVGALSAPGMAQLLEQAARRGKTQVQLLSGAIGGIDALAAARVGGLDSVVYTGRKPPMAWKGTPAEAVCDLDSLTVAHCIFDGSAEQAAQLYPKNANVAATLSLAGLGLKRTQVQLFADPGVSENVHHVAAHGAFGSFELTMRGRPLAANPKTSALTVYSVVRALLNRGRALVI
Briefly: Screening of substrate specificity, ADH. Conditions: relative to oxaloacetate; 20 mM substrate, […] NADH, pH 9.

Data set [2] concerns the target T2, Polaromonas sp. aspartate dehydrogenase (Polaromonas sp., UniProt Q126F5).
T2 sequence (Q126F5 1-267): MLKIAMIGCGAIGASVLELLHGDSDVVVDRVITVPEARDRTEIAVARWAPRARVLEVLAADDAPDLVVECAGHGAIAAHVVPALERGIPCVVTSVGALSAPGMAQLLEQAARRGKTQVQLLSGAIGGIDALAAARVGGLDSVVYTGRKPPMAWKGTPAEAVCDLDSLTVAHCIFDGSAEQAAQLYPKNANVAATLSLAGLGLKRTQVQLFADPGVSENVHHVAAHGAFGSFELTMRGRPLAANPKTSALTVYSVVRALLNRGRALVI
In words: Regulatory properties of the ADH. To be noted: addition of 1 mM, 29° C., pH 9.8.

Data set [3] has as its target T3, purified ADH (Polaromonas sp.) (Polaromonas sp., UniProt Q126F5).
T3 sequence (Q126F5 1-267): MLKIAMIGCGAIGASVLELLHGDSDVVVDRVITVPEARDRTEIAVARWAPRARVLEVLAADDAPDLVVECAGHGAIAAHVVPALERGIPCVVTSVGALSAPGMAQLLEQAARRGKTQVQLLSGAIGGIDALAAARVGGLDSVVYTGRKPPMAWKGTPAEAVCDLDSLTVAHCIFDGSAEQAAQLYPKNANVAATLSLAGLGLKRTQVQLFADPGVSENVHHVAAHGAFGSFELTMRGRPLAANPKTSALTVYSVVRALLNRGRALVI
Briefly: Screening of alternative substrates for purified ADH. To be noted: 10 mM, 29° C.; for ability to replace aspartic acid in reverse reaction: 1 mM NAD^+; for ability to replace oxaloacetate in forward reaction: […] NADH, 50 mM NH4Cl.

Data set [4] concerns ADH-Re. In words: Screening of substrate specificity, ADH-Re. To be noted: relative to oxaloacetate; 20 mM substrate, […] NADH, pH 9.
Substrate in data set [5]: NC(=O)c1ccc[n+]([C@@H]2O[C@H](COP(=O)([O-])OP(=O)(O)OC[C@H]3O[C@@H](n4cnc5c(N)ncnc54)[C@H](O)[C@@H]3O)[C@@H](O)[C@H]2O)c1
Briefly: purified protein, by the assay type.

The mark [6] stands for this setting: other: Aspartic acid oxidative deamination.
Where [7] appears, read: other: Aspartate oxidative deamination.

As to `O=C(O)CC(=O)C(=O)O` [Oxaloacetate], in data set [1], the “Amination activity, ADH” value came to 100 ± 3%.
On to `CC(=O)SCCNC(=O)CCNC(=O)[C@H](O)C(C)(C)COP(=O)(O)OP(=O)(O)OC[C@H]1O[C@@H](n2cnc3c(N)ncnc32)[C@H](O)[C@@H]1OP(=O)(O)O` [acetyl-coenzyme A], for which the “effect on ADH activity in forward and reverse reactions” value (shortened to “effect on ADH activity”) in data set [2] is reported as “not significantly affected”.
Take `NC(=O)C[C@H](N)C(=O)O` [asparagine]: the “ability to replace aspartic acid in reverse reaction” value (from here on “ability to replace aspartic acid”) in data set [3] is listed as “No activity”.
For `CC(C)(COP(=O)(O)OP(=O)(O)OC[C@H]1O[C@@H](n2cnc3c(N)ncnc32)[C@H](O)[C@@H]1OP(=O)(O)O)[C@@H](O)C(=O)NCCC(=O)NCCS` [coenzyme A], the “effect on ADH activity” value in data set [2] is “not significantly affected”.
Regarding `CC[C@H](C)[C@H](N)C(=O)O` [isoleucine], the “ability to replace aspartic acid” value in data set [3] was “No activity”.
With `CC(C)C(=O)C(=O)O` [ketoisovaleriate], the “Amination activity, ADH” value in data set [1] is “na (no activity (<0.2%))”. Further, the “Amination activity, ADH-Re” value in data set [4] was “na (no activity (<0.2%))”. In addition, the “ability to replace oxaloacetate in forward reaction” value (“ability to replace oxaloacetate” for short) in data set [3] is listed as “No activity”.
As for `CCC(C)C(=O)C(=O)O` (stereo not shown) [ketomethylvaleriate], the “Amination activity, ADH” value in data set [1] is “na (no activity (<0.2%))”. Further, the “Amination activity, ADH-Re” value in data set [4] was “na (no activity (<0.2%))”. Besides, the “ability to replace oxaloacetate” value in data set [3] is “No activity”.
As to `O=C(O)CC(O)C(=O)O` (stereo not shown) [malate], the “effect on ADH activity” value in data set [2] is listed as “not significantly affected”.
Take `CC(=O)C(=O)O` [pyruvate]: in data set [1], the “Amination activity, ADH” value is on record as “na (no activity (<0.2%))”. Moreover, in data set [3], the “ability to replace oxaloacetate” value was “No activity”.
As for `CC(C)[C@H](N)C(=O)O` [valine], the “ability to replace aspartic acid” value in data set [3] is given as “No activity”.
Still for that read-out and setting: the value for `CCC(N)C(=O)O` (stereo not drawn) [α-aminobutyrate] was “No activity”.
Turning to `CCC(=O)C(=O)O` [α-ketobutyrate], in data set [1], the “Amination activity, ADH” value is reported as “na (no activity (<0.2%))”. Further, the “Amination activity, ADH-Re” value in data set [4] is listed as “na (no activity (<0.2%))”. For the same molecule, the “ability to replace oxaloacetate” value in data set [3] is listed as “No activity”.
With `O=C(O)CCC(=O)C(=O)O` [α-ketoglutarate], in data set [4], the “Amination activity, ADH-Re” value is recorded as “na (no activity (<0.2%))”.

B1: Rhodopseudomonas palustris ADH1-Rp (Rhodopseudomonas palustris HaA2) (protein)
chain: MRSGRAPQRVAIAGLGAIGKAIARELDRGLDGLTLGAVASGDPEKHRAFLDGLRTTPPVVPLDQLHAHADLVIEAAPSRLLRAIVEPFVSRGRTAIVLSAAALLQNEDLIDLANLNGGQIIVPTGALIGLDAVTAAAVGTIHSVRMITRKPVDGLRGAPFIVDNGIDLDGLREPLKLFEGTAREAGKGFPANLNVAVALSLAGIGPDRTMVEIWADPGVTRNTHRIEVDADSARFAMTIENVPSDNPRTGLITPLSVIALLRKQSAALRVGT
On to B1, for which, in data set [5] (setting [6]), the Michaelis-Menten constant (Km) came out at 7.0 ± 0.3 mM, the Vmax turned out to be 3.11 µmol/min/mg, the kcat came out at 1.58 ± 0.0333 s⁻¹ and the kcat/Km was determined as 227 ± 15 M⁻¹ s⁻¹.

B2: Bradyrhizobium japonicum ADH-Bj (Bradyrhizobium diazoefficiens USDA 110) (protein)
chain: MGSSHHHHHHSSGDRRWKVMTDQTASSELRVAIAGLGSIGTKIAAALDQGEGLTLSAVAVRDPAKHQAFLNGLRRPPQVLPIDQLGEAADIVVECAPSSQLRAIVEPAVKRGKAAVVVSVGGLLDNFDLVDLARANGGRIIVPTGALIGLDAVNAAVIGTIHSVKMVTRKPIDGLKGAPFIVHNNIDIDTLREPLKLFEGTAREAAKGFPANLNVAVALSLAGVGPDRTSVQIWADPTVTRNVHRIEVEADSARFSMSIENIPSENPKTGLITALSVIALLRKQRATLCVGT
For the molecule B2, in data set [5] (setting [7]), the Km is reported as 10 ± 3 mM, the Vmax was 6.5 µmol/min/mg, the kcat came to 3.33 ± 0.5 s⁻¹ and the kcat/Km came out at 333 M⁻¹ s⁻¹.
